This is an account of results in US20160375050A1, “METHODS AND COMPOSITIONS INVOLVING CHITOSAN NANOPARTICLES” (The Board of Regents of the University of Texas System, priority 2007, published 2016).

One data set deals with VASH1 mRNA in MOEC. Nature of the data set: VASH1 mRNA after EZH2 gene silencing, real-time qRT-PCR. The format is cell-based, mouse. Conditions: 72 hours after transfection. The procedure: Relative expression of EZH2 and VASH1 mRNA in HUVEC and MOEC cells was determined by real-time quantitative RT-PCR. Cells were seeded at 1.0×10^4 cells per well in 96-well plates in complete medium and incubated at 37° C. for 24 hours, and then in low-serum medium (0.5% serum) for 18 hours, minus EGF and VEGF supplements where appropriate. After washing with warm PBS, cells were treated in triplicate at 37° C. for six hours with EGF (25 ng/mL) and VEGF (50 ng/mL), each in fresh medium (lacking supplemental EGF or VEGF) with no serum, fresh complete medium plus 2% serum, and conditioned media. Relative expression of VASH1 mRNA in MOEC cells was determined by transfecting cells with EZH2 mouse siRNA. Samples were collected after 72 hours of transfection. Real-time quantitative RT-PCR was performed using 50 ng total RNA isolated from treated cells using the RNeasy Mini Kit (Qiagen). Relative expression values were obtained using the average of three reference genes and the 2^−ΔΔCT method as described previously, and normalized to control for percent fold changes (Donninger et al., 2004).
In general terms: Quantitative PCR measures a nucleic acid by following its amplification.

The test system of data set [1] is EZH2 promoter in EAhy926 endothelial cell line. Nature of the data set: EZH2 promoter luciferase reporter assay. Conditions: EAhy926, 6 hours, EGF 25 ng/mL, VEGF 50 ng/mL. The format is cell-based, human. The procedure:
Relative activity of the EZH2 promoter in the EAhy926 cell line was determined by luciferase reporter assay. Cells were transfected in low-serum medium (0.5% serum) with the firefly luciferase plasmid, either empty vector (pGL3-Basic) or the EZH2 promoter construct vector (EZH2prom-pGL3-Basic), in 12-well plates using Effectene® Transfection Reagent from Qiagen (Valencia, Calif.). Cells were then maintained in low-serum medium for 18 hours, washed in warm 1× phosphate-buffered saline (PBS), and treated in triplicate at 37° C. for 6 hours. Treatments included recombinant human (rh) EGF (EGF; 25 ng/mL; Invitrogen) and rhVEGF165 (VEGF; 50 ng/mL; Peprotech, Rocky Hill, N.J.), each in fresh medium plus 0.5% serum, fresh complete medium plus 10% serum, and conditioned media from immortalized ovarian surface epithelium (105E120) and from papillary serous ovarian cancer cell lines (OVCA420 and SKOV3). Medium in control wells (pGL3-Basic transfectants) was not changed on the day of treatment. Following treatment, cells were washed briefly in cold 1×PBS and lysates were collected and processed using the Dual-Luciferase® Reporter Assay System (Promega Corp.). Firefly luciferase readings were averaged and normalized to pGL3-Basic control readings for percent fold changes.
On the technique in general: A reporter such as luciferase makes a cellular process visible.

Consider “mouse EZH2 siRNA: Murine EZH2 siRNA, target 5′-GCACAAGTCATCCCGTTAATT-3′ (SEQ ID NO: 15), transfected in vitro (target site or template, no part of the molecule; listed as DNA, chemistry not given here)”, for which the “increase in VASH1 mRNA compared to control siRNA treated cells” value with VASH1 mRNA in MOEC worked out at 2.8 fold.
Turning to “EGF: recombinant human EGF, Invitrogen (NSDSECPLSHDGYCLHDGVCMYIEALDKYACNCVVGYIGERCQYRDLKWWELR; Epidermal growth factor; UniProt P01133 971-1023, looked up)”, the EZH2 promoter activity entry in data set [1] is “significant increase”.
On the same count and under the same terms, as for VEGF, the entry is “significant increase”.
